Laboratory results published in ChEMBL document CHEMBL5154841, “Optimization of NAMPT activators to achieve in vivo neuroprotective efficacy” (Eur J Med Chem, 2022).

Key:
[1] = Cytoprotective activity against FK866- induced cell death in human U2OS cells assessed as increase in viable cells by measuring relative AUC at 10 uM incubated for […] by fluorometric analysis relative to NAT; assay type: functional
[2] = Clearance in CD-1 mouse at 1 mg/kg, iv measured after 24 hrs by LC-MS/MS analysis; assay type: ADME, organism-based; conditions: in vivo
[3] = Half life in CD-1 mouse at 1 mg/kg, iv measured after 24 hrs by LC-MS/MS analysis; assay type: ADME, organism-based; conditions: in vivo
[4] = Toxicity in C57BL/6J mouse assessed as body weight loss at 1 to 3 mg/kg, iv qd administered for 2 weeks and measured every day; assay type: organism-based; conditions: in vivo, 336 h, dose 1-3 mg/kg
[5] = AUClast in CD-1 mouse at 30 mg/kg, ip measured after 24 hrs by LC-MS/MS analysis; assay type: ADME, organism-based; set-up: dose 30 mg/kg, time 24 hrs, route ip; conditions: in vivo
[6] = AUCinfinity in CD-1 mouse at 30 mg/kg, po measured after 24 hrs by LC-MS/MS analysis; assay type: ADME, organism-based; set-up: dose 30 mg/kg, time 24 hrs, route po; conditions: in vivo
[7] = Tmax in CD-1 mouse at 30 mg/kg, ip measured after 24 hrs by LC-MS/MS analysis; assay type: ADME, organism-based; conditions: in vivo
[8] = Cmax in CD-1 mouse at 30 mg/kg, ip measured after 24 hrs by LC-MS/MS analysis; assay type: ADME, organism-based; set-up: time 24 hrs, dose 30 mg/kg, route ip; conditions: in vivo
[9] = Half life in CD-1 mouse at 30 mg/kg, po measured after 24 hrs by LC-MS/MS analysis; assay type: ADME, organism-based; conditions: in vivo
[10] = Cmax in CD-1 mouse at 30 mg/kg, po measured after 24 hrs by LC-MS/MS analysis; assay type: ADME, organism-based; set-up: dose 30 mg/kg, time 24 hrs, route po; conditions: in vivo
[11] = Half life in CD-1 mouse at 30 mg/kg, ip measured after 24 hrs by LC-MS/MS analysis; assay type: ADME, organism-based; conditions: in vivo
[12] = tested on: SH-SY5Y; assay: Cytotoxicity against human SH-SY5Y cells assessed as effect on cell viability up to 10 uM measured after 72 hrs by Celltiter-glo luminescent cell viability assay; assay type: toxicity, cell-based
[13] = Oral bioavailability in CD-1 mouse at 30 mg/kg measured after 24 hrs by LC-MS/MS analysis; assay type: ADME, organism-based; conditions: in vivo
[14] = tested on: U2OS; assay: Cytotoxicity against human U2OS cells assessed as effect on cell viability up to 10 uM measured after 72 hrs by Celltiter-glo luminescent cell viability assay; assay type: toxicity, cell-based
[15] = Bioavailability in CD-1 mouse at 30 mg/kg, ip measured after 24 hrs by LC-MS/MS analysis; assay type: ADME, organism-based; conditions: in vivo
[16] = tested on: HepG2; assay: Cytotoxicity against human HepG2 cells assessed as effect on cell viability up to 10 uM measured after 72 hrs by Celltiter-glo luminescent cell viability assay; assay type: toxicity, cell-based; conditions: hepg2, 72 h
[17] = Tmax in CD-1 mouse at 30 mg/kg, po measured after 24 hrs by LC-MS/MS analysis; assay type: ADME, organism-based; conditions: in vivo
[18] = Volume of distribution at steady state in CD-1 mouse at 1 mg/kg, iv measured after 24 hrs by LC-MS/MS analysis; assay type: ADME, organism-based; conditions: in vivo, read-out: Vdss
[19] = AUCinfinity in CD-1 mouse at 30 mg/kg, ip measured after 24 hrs by LC-MS/MS analysis; assay type: ADME, organism-based; set-up: dose 30 mg/kg, time 24 hrs, route ip; conditions: in vivo
[20] = AUClast in CD-1 mouse at 30 mg/kg, po measured after 24 hrs by LC-MS/MS analysis; assay type: ADME, organism-based; set-up: dose 30 mg/kg, time 24 hrs, route po; conditions: in vivo
[21] = tested on: T98G; assay: Cytotoxicity against human T98G cells assessed as effect on cell viability up to 10 uM measured after 72 hrs by Celltiter-glo luminescent cell viability assay; assay type: toxicity, cell-based
[22] = AUClast in CD-1 mouse at 1 mg/kg, iv measured after 24 hrs by LC-MS/MS analysis; assay type: ADME, organism-based; set-up: dose 1 mg/kg, time 24 hrs, route iv; conditions: in vivo
[23] = AUCinfinity in CD-1 mouse at 1 mg/kg, iv measured after 24 hrs by LC-MS/MS analysis; assay type: ADME, organism-based; set-up: time 24 hrs, dose 1 mg/kg, route iv; conditions: in vivo

`CC(C)(C)c1cc(C#N)ccc1OCC(=O)Nc1ccc(O)cc1` showed an Activity [1] of 126%.

In the case of `CC(C)(C)c1cccc(C#N)c1OCC(=O)Nc1ccc(O)cc1`, the clearance [2] is reported as 90.4 mL/min/kg, the half-life [3] is reported as 10.8 min and the Activity [4] is reported as “Non-Toxic”. For the same compound, the AUC(0-t) at 24 h [5] was 1330 ng·h/mL, the AUC(0-inf) [6] was 395 ng·h/mL and the Tmax [7] was 15 min. It also gave a Cmax [8] of 1560 ng/mL, a half-life [9] of 80.4 min and a Cmax [10] of 188 ng/mL. The half-life [11] was 63 min, the Activity [12] was “Non-Toxic” and the bioavailability [13] was 7.05%. For the same compound, the Activity [14] was “Non-Toxic”, the bioavailability [15] was 24.2% and the Activity [16] was “Non-Toxic”. The Tmax [17] was 15 min, the Vd [18] was 1.13 L/kg and the AUC(0-inf) [19] was 1340 ng·h/mL. For the same compound, the AUC(0-t) at 24 h [20] was 388 ng·h/mL, the Activity [21] was “Non-Toxic” and the AUC(0-t) at 24 h [22] was 183 ng·h/mL. It also gave an AUC(0-inf) [23] of 185 ng·h/mL.

`CC(C)(C)c1cc(Cl)c(F)cc1OCC(=O)Nc1ccc(O)cc1` gave an Activity [1] of 40%.

`COc1ccc(OCC(=O)Nc2ccc(O)cc2)c(C(C)(C)C)c1` gave an Activity [1] of 138%.

For `CC(C)(C)c1ccccc1OCC(=O)Nc1ccc(O)cc1`, the clearance [2] was 78.8 mL/min/kg, the half-life [3] was 17.4 min and the AUC(0-t) at 24 h [5] was 2510 ng·h/mL. For the same compound, the AUC(0-inf) [6] was 2130 ng·h/mL, the Tmax [7] was 19.8 min and the Cmax [8] was 1520 ng/mL. The half-life [9] was 178 min, the Cmax [10] was 1620 ng/mL and the half-life [11] was 180 min. It also gave a bioavailability [13] of 33.2%, a bioavailability [15] of 39.2% and a Tmax [17] of 15 min. The Vd [18] was 1.3 L/kg, the AUC(0-inf) [19] was 2520 ng·h/mL and the AUC(0-t) at 24 h [20] was 2120 ng·h/mL. It also gave an AUC(0-t) at 24 h [22] of 212 ng·h/mL and an AUC(0-inf) [23] of 214 ng·h/mL.

Compound `CC(C)(C)c1cccc(F)c1OCC(=O)Nc1ccc(O)cc1` has an Activity [1] of 235%.

With `CC(C)(C)c1cc(Br)ccc1OCC(=O)Nc1ccc(O)cc1` the Activity [1] was 40%.

With `CC(C)(C)c1cc(Cl)ccc1OCC(=O)Nc1ccc(O)cc1` the Activity [1] was 32%.

`O=C(COc1ccccc1)Nc1ccc(O)cc1` showed an Activity [1] of 10%.

`COC(=O)c1ccc(OCC(=O)Nc2ccc(O)cc2)c(C(C)(C)C)c1` showed an Activity [1] of 133%.

With `CC(C)(C)c1ccc(F)cc1OCC(=O)Nc1ccc(O)cc1` the Activity [1] was 171%.

With `CC(C)(C)c1ccc(C#N)cc1OCC(=O)Nc1ccc(O)cc1` the Activity [1] was 206%.

`CC(C)(C)c1cc(O)ccc1OCC(=O)Nc1ccc(O)cc1` gave an Activity [1] of 149%.
